# Like-named read-outs stand apart in the source and are kept apart here.
# Assays:
# [1] = NGI cascade impactor test, active dry powder inhaler with piezoelectric vibrator; format: physicochemical; conditions: NGI approx. 30 L/min for 2 seconds
# Text: The inhaler device included injection molded plastic components, electronics, a battery, and drug filled blisters. The inhaler included a lever arm, upon actuation of which the blister was placed in contact with a piezoelectric vibrator within the device and then pierced by needles. The inhaler also included an airflow sensor which automatically turned on the piezoelectric vibrator after a minimum inspiratory flow rate was exceeded. Activation of the piezoelectric vibrator […] powder particles and aerosolized them out of the blister and into the inspiratory airstream. The inhaler included visual feedback at the start of dosing and as confirmation of successful completion of dosing, thereby facilitating improved patient compliance. […] A blend containing disodium cromoglycate (DSCG) (Cambrex) and lactose monohydrate (DFE Pharma) (grade: lactohale LH201) was prepared by blending at a speed of 150 rpm for 15 minutes. The blend contained 60:40 (wt/wt.) DSCG:lactose. Neat DSCG also was tested.
# [2] = NGI cascade impactor test, single-use passive dry powder inhaler ([…], Aespira); format: physicochemical; conditions: NGI approx. 100 L/min for 2.4 seconds
# Procedure: Delivery of cromolyn by a single-use passive dry powder inhaler device was assessed. The passive inhaler device included an active particle dispersion mechanism ([…]) involving breath-driven beating of a mesh package containing the powder to be delivered. A blend containing disodium cromoglycate (DSCG) (Cambrex) and Lactohale LH300 lactose (Friesland Foods Domo) was prepared by blending in an Alpine Picoline high shear mixer (module Picomix) (Hosokawa Alpine, Augsburg, Germany) at a speed of 4000 rpm for 3 minutes. The blend contained 80:20 (wt/wt.) DSCG:lactose. Neat DSCG also was tested.
# [3] = Phase 1 pharmacokinetic study of inhaled cromolyn, plasma; format: in vivo, human; conditions: for Tmax / Vd/F / AUC(0-inf) / Cmax / half-life: human; for half-life: read-out: apparent t1/2 range
# [4] = Initial characterization of manufactured cromolyn (particle size distribution); format: physicochemical
# Text: Cromolyn capsules for inhalation were manufactured by Pharmaterials, Ltd (Reading, UK). […] Therefore, there was a need to use hydrophobic excipient in the powder formulation to improve product performance and stability. Addition of hydrophobic excipient offers inherent resistance of dry powder inhalation formulations to negative effect of moisture to such formulations. Magnesium stearate was chosen as suitable hydrophobic excipient since it is commercially used in dry powder inhaler (DPI) products. […] Lactose monohydrate was additionally used as diluent for this case.
# [5] = NGI impactor fractions with AZHALER dry powder inhaler; format: physicochemical; conditions: per 17.1 mg of API
# Text: AZHALER. […] It is a single-dose device used to deliver the inhalation powder to the patient's lung in form of an aerosol. The inhaler consists of a container, a valve, and a mouthpiece. In this study the low resistance model (80 L airflow resistance) was used. These device reaches a pressure drop of 4 kPa at c.80 L/min, and is suitable for use on a wide range of patient population i.e. including elderly, children and patients with severe respiratory impairment
# [6] = 17.1 mg single inhaled dose, mean
# [7] = 34.2 mg double inhaled dose, mean
# [8] = inhaled or intranasal, 17.1 mg, 17.1 mg single inhaled dose, mean
# [9] = inhaled or intranasal, 34.2 mg, 34.2 mg double inhaled dose, mean
compound,measurement,setting,value
"O=C(O)c1cc(=O)c2c(OCC(O)COc3cccc4oc(C(=O)O)cc(=O)c34)cccc2o1 [DSCG:lactose 100:0, disodium cromoglycate]",Fine Particle Dose <5 μm,[1],2321 µg
same,Fine Particle Fraction <5 μm,[1],59 % of delivered dose
same,Stages 4 to 8,[1],2098 µg
same,Stages 4 to 8 (% of initial dose),[1],42 % of initial dose
same,Fine Particle Dose <5 μm,[2],430 µg
same,Fine Particle Dose <5 μm (% of initial dose),[2],9 % of initial dose
same,MMAD,[2],>4 μm
same,Stages 4 to 8,[2],150 µg
same,Stages 4 to 8 (% of initial dose),[2],3 % of initial dose
"O=C(O)c1cc(=O)c2c(OCC(O)COc3cccc4oc(C(=O)O)cc(=O)c34)cccc2o1 [cromolyn, 5,5′-(2-hydroxypropane-1,3-diyl)bis(oxy)bis(4-oxo-4H-chromene-2-carboxylic acid)]",Cl/F,[3]; [6],108532.36 mL/h
same,T0.5,[3]; [6],1.75 ± 0.9 h
same,T0.5,"[3]; 17.1 mg single inhaled dose, mean, listed as Cromolyn",1.75 h
same,Cl/F,"[3]; 17.1 mg, Max",183363.7 mL/h
same,T0.5,"[3]; 17.1 mg, Max",3.7 h
same,T0.5,"[3]; 17.1 mg, Min","0.6, h"
same,Cl/F,"[3]; 17.1 mg, median",82640.18 mL/h
same,T0.5,"[3]; 17.1 mg, median",1.56 h
same,Cl/F,[3]; [7],132178.06 mL/h
same,T0.5,[3]; [7],1.91 ± 0.7 h
same,T0.5,"[3]; 34.2 mg double inhaled dose, mean, listed as Cromolyn",1.91 h
same,Cl/F,"[3]; 34.2 mg, median",130382.20 mL/h
same,T0.5,"[3]; 34.2 mg, median",1.80 h
same,Tmax,[3]; [8],22.8 min
same,Vd/F,[3]; [8],137 L
same,AUC(0-inf),"[3]; inhaled or intranasal, 17.1 mg, 17.1 mg single inhaled dose, mean, read-out: AUC0-inf",196 ± 97.3 ng·h/mL
same,Cmax,"[3]; inhaled or intranasal, 17.1 mg, 17.1 mg single inhaled dose, mean, read-out: Cmax",46.7 ng/mL
same,half-life,"[3]; inhaled or intranasal, 17.1 mg",36 to 222 min
same,AUC(0-inf),"[3]; inhaled or intranasal, 17.1 mg, single (17.1 mg) dose inhalation, range, read-out: AUC0-inf range",93.3 to 287 ng·h/mL
same,Cmax,"[3]; inhaled or intranasal, 17.1 mg, single dose (17.1 mg) inhalation, mean ± SD, read-out: average Cmax",46.7 ± 33 ng/mL
same,Cmax,"[3]; inhaled or intranasal, 17.1 mg, single dose (17.1 mg) inhalation, range, read-out: Cmax range",14 to 133 ng/mL
same,Tmax,[3]; [9],22.2 min
same,Vd/F,[3]; [9],330 L
same,AUC(0-inf),"[3]; inhaled or intranasal, 34.2 mg, 34.2 mg double inhaled dose, mean, read-out: AUC0-inf",285 ± 91.3 ng·h/mL
same,Cmax,"[3]; inhaled or intranasal, 34.2 mg, 34.2 mg double inhaled dose, mean, read-out: Cmax",96.8 ng/mL
same,AUC(0-inf),"[3]; inhaled or intranasal, 34.2 mg, double (34.2 mg) dose inhalation, range, read-out: AUC0-inf range",155 to 443 ng·h/mL
same,Cmax,"[3]; inhaled or intranasal, 34.2 mg, double dose (34.2 mg) inhalation, mean ± SD, read-out: average Cmax",96.8 ± 46.2 ng/mL
same,Cmax,"[3]; inhaled or intranasal, 34.2 mg, double dose (34.2 mg) inhalation, range, read-out: Cmax range",36.1 to 236 ng/mL
same,half-life,"[3]; inhaled or intranasal, double dose (34.2 mg) inhalation, range",42 to 228 min
same,Tmax,"[3]; inhaled, 17.1 mg, Max",60 min
same,Vd/F,"[3]; inhaled, 17.1 mg, Max",144 L
same,AUC(0-inf),"[3]; inhaled, 17.1 mg, Max, read-out: AUC0-inf",287 ng·h/mL
same,Cmax,"[3]; inhaled, 17.1 mg, Max, read-out: Cmax",133 ng/mL
same,Tmax,"[3]; inhaled, 17.1 mg, Min",6 min
same,Vd/F,"[3]; inhaled, 17.1 mg, Min",134 L
same,AUC(0-inf),"[3]; inhaled, 17.1 mg, Min, read-out: AUC0-inf",93.3 ng·h/mL
same,Cmax,"[3]; inhaled, 17.1 mg, Min, read-out: Cmax",14 ng/mL
same,Tmax,"[3]; inhaled, 17.1 mg, median",15 min
same,Vd/F,"[3]; inhaled, 17.1 mg, median",134 L
same,AUC(0-inf),"[3]; inhaled, 17.1 mg, median, read-out: AUC0-inf",207 ng·h/mL
same,Cmax,"[3]; inhaled, 17.1 mg, median, read-out: Cmax",36.2 ng/mL
same,Tmax,"[3]; inhaled, 34.2 mg, median",13.8 min
same,Vd/F,"[3]; inhaled, 34.2 mg, median",264 L
same,AUC(0-inf),"[3]; inhaled, 34.2 mg, median, read-out: AUC0-inf",262 ng·h/mL
same,Cmax,"[3]; inhaled, 34.2 mg, median, read-out: Cmax",76.5 ng/mL
same,initial characterization of the material,[4]; manufactured cromolyn,crystalline and hygroscopic material
same,particle size distribution d50,[4]; micronized cromolyn,< 5 μm
same,particle size distribution d90,[4]; micronized cromolyn,< 10 μm
same,cromolyn in the impactor fractions with <3 micron size particles (NGI stage 4-MOC),[5],4 to 5 mg
